Measured values taken from the RepoRT retention time repository.

Assay: HILIC, Waters ACQUITY UPLC BEH Amide, 100 × 2.1 mm, 1.7 µm; A: water + 0.125% formic acid + 10 mM ammonium formate; B: 5% water + 95% acetonitrile + 0.125% formic acid + 10 mM ammonium formate; gradient (min/%B) 0/100 2/100 7.7/70 9.5/40 10.25/30 12.75/100 17/100
Conditions: stereoisomer not certain

SMILES	LC retention time [min]
NC(C(=O)NC1C(=O)N2C(C(=O)O)=C(Cl)CSC12)c1ccccc1 (stereo unspecified) [Cefaclor]	5.61
C[N+](C)(C)C(Cc1c[nH]c(=S)[nH]1)C(=O)[O-] (stereo unspecified) [Ergothioneine]	7.74
CC(CCC(=O)NCCS(=O)(=O)O)C1CCC2C3C(O)CC4CC(O)CCC4(C)C3CC(O)C12C (stereo unspecified) [Taurocholic acid]	6.12
O=c1c(O)c(-c2ccc(O)cc2)oc2cc(O)cc(O)c12 [Kaempferol]	1.4
CN1C(C(=O)Nc2ccccn2)=C(O)c2ccccc2S1(=O)=O [Piroxicam]	1.02
O=c1ccn(C2OC(CO)C(O)C2O)c(=O)[nH]1 (stereo unspecified) [Uridine]	4.72
CCCc1nc(C)c2c(=O)[nH]c(-c3cc(S(=O)(=O)N4CCN(CC)CC4)ccc3OCC)nn12 [Vardenafil]	1.7
CS(=O)(=O)Nc1ccc(Cc2noc(-c3ccc4[nH]cc(CCN)c4c3)n2)cc1 [L-694,247]	5.25
CCC1=CC2CN(C1)Cc1c([nH]c3ccccc13)C(C(=O)OC)(c1cc3c(cc1OC)N(C)C1C(O)(C(=O)OC)C(OC(C)=O)C4(CC)C=CCN5CCC31C54)C2 (stereo unspecified) [Vinorelbine]	4.76
Cn1cncc1CC(N)C(=O)O (stereo unspecified) [3-Methylhistidine]	9.41
O=C(O)c1cc(N=Nc2ccc(S(=O)(=O)Nc3ccccn3)cc2)ccc1O [Sulfasalazine]	2.01
Cc1nc2n(c(=O)c1CCN1CCC(c3noc4cc(F)ccc34)CC1)CCCC2 [Risperidone]	3.52
C[N+](C)(C)CCCCC(N)C(=O)[O-] (stereo unspecified) [NEPSILON,NEPSILON,NEPSILON-TRIMETHYLLYSINE]	9.29
O=C(C=Cc1ccc(O)c(O)c1)OC1CC(O)(C(=O)O)CC(O)C1O (stereo unspecified) [Chlorogenic acid]	6.68
COc1ccc2c(c1OC)C(=O)OC2C1c2c(cc3c(c2OC)OCO3)CCN1C (stereo unspecified) [Noscapine]	1.31
COc1cccc(C(=O)O)c1N [2-Amino-3-methoxybenzoic acid]	1.27
COc1ccccc1OCCNCC(O)COc1cccc2[nH]c3ccccc3c12 (stereo unspecified) [Carvedilol]	3.17
OCC1OC(OC2(CO)OC(CO)C(O)C2O)C(O)C(O)C1O (stereo unspecified) [Sucrose]	8.05
c1ncc2[nH]cnc2n1 [Purine]	2.44
CC(=O)NC(CO)C(=O)O (stereo unspecified) [N-Acetylserine]	7.67
NC(Cc1ccc(O)c(Cl)c1)C(=O)O (stereo unspecified) [3-Chlorotyrosine]	7.13
CCCC(=O)NCC(=O)O [Butyrylglycine]	3.73
CC(C)(O)CC(=O)O [beta-Hydroxyisovaleric acid]	4.55

SMILES	LC retention time [min]
CN(CCOc1ccc(NS(C)(=O)=O)cc1)CCc1ccc(NS(C)(=O)=O)cc1 [Dofetilide]	3.38
CN(C)CCOC(C)(c1ccccc1)c1ccccn1 (stereo unspecified) [Doxylamine]	2.45
CC12CCC3C(CCC4CC(O)CCC43C)C1CCC2O (stereo unspecified) [Androstane-3,17-diol]	0.96
O=C(NCCO[N+](=O)[O-])c1cccnc1 [Nicorandil]	1.11
OCC1OC(OC2C(CO)OC(O)C(O)C2O)C(O)C(O)C1O (stereo unspecified) [Maltose]	8.75
NCc1[nH]cc(CCC(=O)O)c1CC(=O)O [Porphobilinogen]	7.4
O=c1ccc2cccc(O)c2[nH]1 [2,8-Quinolinediol]	1.53
NCCCC(=O)O [gamma-Aminobutyric Acid]	7.86
O=c1[nH]c(=O)c2nccnc2[nH]1 [Lumazine]	2.49
O=C(O)c1ccccc1C(=O)O [Phthalic acid]	1.15
CCCCC(N)C(=O)O (stereo unspecified) [Norleucine]	6.99
CNC(CC(C)C)C(=O)O (stereo unspecified) [N-Methylleucine]	6.45
NC(N)=NCCCC(N)C(=O)N1CCCC1C(=O)O (stereo unspecified) [Arg-Pro]	9.51
CN(C)CCC(c1ccc(Cl)cc1)c1ccccn1 (stereo unspecified) [Chlorpheniramine]	2.54
COc1ccc(C=O)cc1OC [3,4-Dimethoxybenzaldehyde]	1.08
CCC(C)C(=O)OC1CC(O)C=C2C=CC(C)C(CCC(O)CC(O)CC(=O)O)C21 (stereo unspecified) [Pravastatin]	1.8
O=C(c1ccccc1)c1ccc2n1CCC2C(=O)O (stereo unspecified) [Toradol]	1.29
NC(CCO)C(=O)O (stereo unspecified) [Homoserine]	8.29
O=C1Nc2ccc(Cl)cc2C(c2ccccc2Cl)=NC1O (stereo unspecified) [Lorazepam]	1.33
C[S+](CCC(N)C(=O)[O-])CC1OC(n2cnc3c(N)ncnc32)C(O)C1O (stereo unspecified) [S-Adenosyl-methionine]	9.7
N[C@H]1[C@@H](OP(=O)(O)O)O[C@H](CO)[C@H](O)[C@@H]1O [alpha-Galactosamine-1-phosphate]	7.06
COc1ccc2c(c1)c(CC(=O)O)c(C)n2C(=O)c1ccc(Cl)cc1 [Indomethacin]	1.08
Cc1nccn1CC1CCc2c(c3ccccc3n2C)C1=O (stereo unspecified) [Ondansetron]	2.83

SMILES	LC retention time [min]
O=C1c2cccc3c2C(CCC3)CN1C1CN2CCC1CC2 (stereo unspecified) [Palonosetron]	4.05
CC(NC(C)(C)C)C(=O)c1cccc(Cl)c1 (stereo unspecified) [Bupropion]	2.22
OCC1OC(Oc2cc(O)cc(C=Cc3ccc(O)cc3)c2)C(O)C(O)C1O (stereo not drawn) [trans-Piceid]	4.64
CC(C)c1ccc2oc3nc(N)c(C(=O)O)cc3c(=O)c2c1 [Amlexanox]	1.81
c1cncc(C2CCCN2)c1 (stereo unspecified) [Nornicotine]	5.98
Nc1c(O)cccc1C(=O)CC(N)C(=O)O (stereo unspecified) [3-Hydroxykynurenine]	7.35
CC(C)C(=O)O [Isobutyric acid]	1.77
Nc1c2c(nc3c1CCC3)CCCC2 [Ipidacrine]	3.33
CC1CN(CCCn2c3ccccc3c3ccccc32)CC(C)N1 (stereo unspecified) [Rimcazole]	2.87
NCCc1c[nH]c2ccc(O)cc12 [Serotonin]	1.44
CCCCC(=O)N(Cc1ccc(-c2ccccc2-c2nn[nH]n2)cc1)C(C(=O)O)C(C)C (stereo unspecified) [Valsartan]	1.69
CC1OC(OCC2OC(Oc3c(-c4ccc(O)c(O)c4)oc4cc(O)cc(O)c4c3=O)C(O)C(O)C2O)C(O)C(O)C1O (stereo unspecified) [Rutin]	6.6
CC(NC(=O)C(Cc1ccc(O)cc1)NC(=O)CN)C(=O)O (stereo not drawn) [Gly-Tyr-Ala]	7.89
O=C1OC(C(O)CO)C(O)=C1O (stereo unspecified) [Ascorbic acid]	1.44
NCCCCC(NC(=O)C(N)CCC(=O)O)C(=O)O (stereo unspecified) [Glu-Lys]	9.9
CC(=O)Oc1ccc2c(C)cc(=O)oc2c1 [4-Methylumbelliferyl acetate]	1.06
CN1C(=O)CCC1c1ccc[n+]([O-])c1 [(S)-Cotinine N-oxide]	3.87
CN1CCCCC1CCN1c2ccccc2Sc2ccc(S(C)=O)cc21 (stereo unspecified) [Mesoridazine]	4.24
CC(=O)Nc1ccc(O)cc1 [Acetaminophen]	1.37
COC(=O)c1cc(O)c(O)c(O)c1 [Methylgallate]	1.43
CC(C)C(NC(=O)C(N)CCC(=O)O)C(=O)NC(Cc1ccccc1)C(=O)O (stereo not drawn) [Glu-Val-Phe]	7.66
NC(N)=NC(=O)c1nc(Cl)c(N)nc1N [Amiloride]	5.52
COC1C(CO)OC(n2cnc3c(=O)[nH]c(N)nc32)C1O (stereo unspecified) [3'-O-Methylguanosine]	5.8

SMILES	LC retention time [min]
CC12CCC3C(CC=C4CC(O)CCC43C)C1CCC2=O (stereo unspecified) [Dehydroepiandrosterone]	1.03
NCC(=O)O [Glycine]	8.33
COc1nc(C)nc(Cl)c1NC1=NCCN1 [Moxonidine]	3.28
NC(=O)c1cccnc1 [Nicotinamide]	1.7
CC(=O)NC(CS)C(=O)O (stereo unspecified) [N-Acetylcysteine]	5.28
COc1cc2c(=O)c(-c3ccc(O)cc3)coc2cc1O [Glycitein]	1.32
Oc1cc(O)c2c(c1)OC(c1cc(O)c(O)c(O)c1)C(O)C2 (stereo unspecified) [Epigallocatechin]	10.2
Cc1ncc([N+](=O)[O-])n1CC(C)O (stereo unspecified) [Secnidazole]	1.12
CC(=O)NCCc1cnc[nH]1 [N-omega-Acetylhistamine]	6
NC(=O)Cc1ccccc1 [2-Phenylacetamide]	1.26
CC(NC(=O)C(N)C(C)O)C(=O)O (stereo unspecified) [Thr-Ala]	8.56
CC(C=CC1=C(C)CCCC1(C)C)=CC=CC(C)=CC(=O)O [Retinoic acid]	1.11
O=CCC(O)C(O)CO (stereo unspecified) [2-Deoxyribose]	1.42
O=C(O)CNC(=O)C=Cc1ccccc1 [N-Cinnamoylglycine]	2.95
COc1ccc2[nH]cc(CCN)c2c1 [5-Methoxytryptamine]	4.99
CC12CCC3C(CCC4CC(O)CCC43C)C1CCC2=O (stereo unspecified) [Androsterone]	4.62
COc1cc(C=CC=O)ccc1O [Coniferylaldehyde]	1.14
CC(=O)NC(C)C(=O)O (stereo unspecified) [N-Acetylalanine]	4.83
CC(C)C(C)C=CC(C)C1CCC2C3=CC=C4CC(O)CCC4(C)C3CCC21C (stereo unspecified) [Ergosterol]	1.43
CCOC(=O)C1=C(C)NC(C)=C(C(=O)OC)C1c1cccc([N+](=O)[O-])c1 (stereo unspecified) [Nitrendipine]	0.95
Nc1nc2[nH]c(=O)cnc2c(=O)[nH]1 [Isoxanthopterin]	6.41
CC(=O)n1ccnc1 [1-Acetylimidazole]	1.37
